Results from patent US20170334852A1, “CATIONIC LIPID” (Eisai R&D Management Co., Ltd., priority 2014, published 2017).

Columns and labels:
[1] = Particle diameter on storage in sealed vial at 4° C., analysis (7); type: physicochemical; settings: lipid complex stored for a certain period
Procedure: In the compositions of Examples 46 to 52, each composition was stored in a sealed vial at 4° C. and the particle diameter (Z-average and polydispersity index) before the strorage, after 3 months from the storage and after 6 months from the storage was measured in the same manner as that for the composition of Example 29.

[2] = Particle diameter after mixing, PBS dialysis and storage at 4° C., analysis (9); type: physicochemical; settings: storage period, compared to the composition of Comparative Example 3
Procedure: In the compositions of Examples 53 and 54 and Comparative Example 3, the particle diameter (Z-average and polydispersity index) was measured immediately after the lipid complex was generated by mixing the siRNA diluent and the lipid solution in the preparation of each composition, after the lipid complex was dialyzed into PBS, and after storage in the sealed vial at 4° C. for 2 months and 6 months, using a particle diameter-measuring device (trade name “Zetasizer Nano ZS”, manufactured by Malvern Instruments Ltd.).

SMILES | Increase in particle diameter of the lipid complex during storage (in words) [1] | Increase in particle diameter of the lipid complex during storage (in words) [2]
CCCCCCCCCCC(CCCCCCCCC(=O)OCC(CCCC)CCCCCC)OC(=O)C1CCN(C)CC1 (centres unmarked) [YS-120, 1-((2-butyloctyl)oxy)-1-oxoicosane-10-yl-1-methylpiperidine-4-carboxylate] | stability is high | an increase in particle diameter of the lipid complex was suppressed
CCCCC/C=C\C(CCCC)COC(=O)CCCCCCCCC(CCCCCCCCCC)OC(=O)C1CCN(C)CC1 (centres unmarked) [YS-122, (Z)-1-((2-butylnon-3-en-1-yl)oxy)-1-oxoicosane-10-yl-1-methylpiperidine-4-carboxylate] | stability is high | 
CCCCCCCCCCC(CCCCCCCCC(=O)OC/C=C\CC(CCC)CCCC)OC(=O)C1CCN(C)CC1 (centres unmarked) [YS-123, (Z)-1-oxo-1-((5-propylnon-2-en-1-yl)oxy)icosane-10-yl-1-methylpiperidine-4-carboxylate] | stability is high | 

The next lines start with results.

Increase in particle diameter of the lipid complex during storage (in words) [1] | SMILES | Increase in particle diameter of the lipid complex during storage (in words) [2]
stability is high | CCCCCCCCCCC(CCCCCCCCC(=O)OCCC(CCCCC)CCCCC)OC(=O)C1CCN(C)CC1 (centres unmarked) [YS-124, 1-oxo-1-((3-pentyloctyl)oxy)icosane-10-yl-1-methylpiperidine-4-carboxylate] | an increase in particle diameter of the lipid complex was suppressed
stability is high | CCCCCCCCCCC(CCCCCCCCC(=O)OCC(CCC)CC(CCC)CCC)OC(=O)C1CCN(C)CC1 (centres unmarked) [YS-125, 1-((2,4-dipropylheptyl)oxy)-1-oxoicosane-10-yl-1-methylpiperidine-4-carboxylate] | 
stability is high | CCCCCCCCCCC(CCCCCCCCC(=O)OCCC(CCC)C(CCC)CCC)OC(=O)C1CCN(C)CC1 (centres unmarked) [YS-126, 1-((3,4-dipropylheptyl)oxy)-1-oxoicosane-10-yl-1-methylpiperidine-4-carboxylate] | 
